Measured values reported in PubChem BioAssay (NCI).
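1) Cells in 96-well plates. 2) Compound, 48 h, 5 concentrations. 3) Linear interpolation between surrounding doses. 4) Unreached endpoint = highest concentration. Abbreviation: GI50, concentration required for 50% inhibition of growth. At the TGI there is no net growth.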

Tests used:
Experiment in all cases: DTP human tumour cell line panel, 48 h
NCI-H23 lung = test system: NCI-H23 lung
HOP-92 NSCLC = test system: HOP-92 NSCLC
RPMI-8226 leukemia = test system: RPMI-8226 leukemia
HL-60(TB) leukemia = test system: HL-60(TB) leukemia
UO-31 renal = test system: UO-31 renal
U251 CNS = test system: U251 CNS
OVCAR-5 ovarian = test system: OVCAR-5 ovarian
786-0 renal = test system: 786-0 renal
UACC-257 melanoma = test system: UACC-257 melanoma
NCI-H226 lung = test system: NCI-H226 lung

Compound	TGI (NCI-H23 lung)	TGI (HOP-92 NSCLC)	TGI (RPMI-8226 leukemia)	TGI (HL-60(TB) leukemia)	TGI (UO-31 renal)	TGI (U251 CNS)	TGI (OVCAR-5 ovarian)	TGI (786-0 renal)	TGI (UACC-257 melanoma)	TGI (NCI-H226 lung)	GI50 (NCI-H23 lung)	GI50 (HOP-92 NSCLC)	GI50 (RPMI-8226 leukemia)	GI50 (HL-60(TB) leukemia)	GI50 (UO-31 renal)	GI50 (U251 CNS)	GI50 (OVCAR-5 ovarian)	GI50 (UACC-257 melanoma)	GI50 (NCI-H226 lung)
CC1(C)CN=C(c2ccc3ccccc3c2O)N1	> 100 µM	> 100 µM	> 100 µM	> 100 µM	> 100 µM	> 100 µM	> 100 µM	> 100 µM	> 100 µM	–	–	–	–	–	–	–	–	–	–
COc1cc(/C=C2\N=C(c3ccccc3)N(c3ccc(C(=O)c4ccccc4)cc3N3C(=O)/C(=C/c4cc(OC)c(OC)c(OC)c4)N=C3c3ccccc3)C2=O)cc(OC)c1OC	41.6 µM	> 100 µM	> 100 µM	15.5 µM	40.3 µM	> 100 µM	> 100 µM	> 100 µM	33.4 µM	–	–	–	–	–	–	–	–	–	–
O/N=C1/CCCCC1NO (stereo unspecified)	> 100 µM	–	> 100 µM	> 100 µM	> 100 µM	> 100 µM	> 100 µM	> 100 µM	> 100 µM	> 100 µM	–	–	–	–	–	–	–	–	–
N#Cc1nc(Cc2cccs2)oc1N	–	> 100 µM	> 100 µM	> 100 µM	> 100 µM	> 100 µM	> 100 µM	> 100 µM	> 100 µM	–	–	–	–	–	–	–	–	–	–
Nc1ncc(Cc2nn3c(COc4ccc(Cl)cc4)nnc3s2)s1	> 100 µM	> 100 µM	> 100 µM	> 100 µM	> 100 µM	–	> 100 µM	> 100 µM	> 100 µM	> 100 µM	–	–	–	–	–	–	–	–	–
CC(=O)Nc1oc(C)nc1C#N	–	> 100 µM	> 100 µM	> 100 µM	–	> 100 µM	> 100 µM	> 100 µM	> 100 µM	–	–	–	–	–	–	–	–	–	–
NCCCN1CCN(CCCNc2ccc3ncn4c5ccccc5c(=O)c2c34)CC1	6.98 µM	> 25 µM	> 25 µM	10.1 µM	22.5 µM	> 25 µM	19.3 µM	24 µM	19.1 µM	–	–	–	–	–	–	–	–	–	–
C=C1C(=O)OC2C1CC1OC2C(C)CCC/C(C)=C\CCC1(C)O (stereo unspecified)	29 µM	30.1 µM	24.3 µM	21.2 µM	79.6 µM	> 91.1 µM	124 µM	–	72.8 µM	51.3 µM	–	–	–	–	–	–	–	–	–
COc1cccc(C2c3cc4c(cc3OC(N3CCOCC3)C2C)OCO4)c1 (stereo unspecified)	–	85.3 µM	> 100 µM	–	43.4 µM	–	71.4 µM	–	> 100 µM	43.4 µM	–	–	–	–	–	–	–	–	–
CC1Oc2c(c(O)cc3oc(=O)cc(-c4ccccc4)c23)C(=O)C1C (stereo unspecified)	> 100 µM	> 100 µM	> 100 µM	> 100 µM	> 100 µM	> 100 µM	–	–	–	> 100 µM	–	–	–	–	–	–	–	–	–
Cc1cccc(/C=N/NC(=S)NC(C)(C)C)n1	> 100 µM	–	> 100 µM	> 100 µM	> 100 µM	> 100 µM	> 100 µM	> 100 µM	> 100 µM	> 100 µM	–	–	–	–	–	–	–	–	–
COC(=O)[C@]12CCC(=O)N1[C@H](C(=O)O)Cc1c2[nH]c2ccccc12	> 100 µM	> 100 µM	–	–	> 100 µM	> 100 µM	> 100 µM	> 100 µM	> 100 µM	–	–	–	–	–	–	–	–	–	–
O.O=[Se](=O)(O)O.[NH-]C1CCCCC1[NH-].[Pt+2] (stereo unspecified)	> 94.9 µM	> 100 µM	> 31.6 µM	33.8 µM	> 68 µM	> 100 µM	> 100 µM	–	> 100 µM	25.7 µM	10.9 µM	58.8 µM	1120 nM	3.22 µM	7.66 µM	37 µM	26.7 µM	46.4 µM	5.21 µM
Cn1c(=O)c2[nH]cnc2n(C)c1=O	> 100 µM	> 100 µM	> 100 µM	> 100 µM	> 100 µM	–	> 100 µM	> 100 µM	> 100 µM	> 100 µM	–	–	–	–	–	–	–	–	–
C#Cc1ccccc1C(=O)OC	> 100 µM	> 100 µM	> 100 µM	> 100 µM	> 100 µM	> 100 µM	> 100 µM	–	> 100 µM	> 100 µM	–	–	–	–	–	–	–	–	–
COC(=O)C[C@H]1[C@]2(C)C3=C(C)[C@H](c4ccoc4)CC3O[C@@H]2[C@@H]2OC(=O)[C@]3(C)CCC(=O)[C@@]1(C)[C@@H]23 (stereo partly specified)	> 100 µM	> 100 µM	50.1 µM	54.8 µM	> 100 µM	> 100 µM	67.3 µM	> 100 µM	> 100 µM	–	–	–	–	–	–	–	–	–	–
OCC1=C[C@@](COCc2ccccc2)(OCc2ccccc2)[C@@H](OCc2ccccc2)[C@@H]1OCc1ccccc1	38.8 µM	–	7.33 µM	65.9 µM	67.1 µM	25.6 µM	60.3 µM	52.9 µM	67.6 µM	35.3 µM	–	–	–	–	–	–	–	–	–
CC[N+]1(C)CCC(O)(/C=C/c2ccc(Cl)c(Cl)c2)C(C(=O)/C=C/c2ccc(Cl)c(Cl)c2)C1 (stereo unspecified)	7.03 µM	7.82 µM	5.7 µM	–	3.67 µM	3.71 µM	7.13 µM	3.46 µM	5.96 µM	14.6 µM	–	–	–	–	–	–	–	–	–
O=c1oc2ccccc2cc1-c1nc2ccccc2s1	39.4 µM	22.3 µM	> 85 µM	> 100 µM	17.6 µM	21.4 µM	65.3 µM	10.6 µM	–	33 µM	–	–	–	–	–	–	–	–	–
CN(NC(=O)/C(=C/C=C/c1ccccc1)NC(=O)c1ccccc1)C1=C(Cl)C(=O)[N+](c2ccccc2)=CC1	> 100 µM	80.1 µM	63.2 µM	–	> 100 µM	40.2 µM	> 100 µM	39.2 µM	> 100 µM	37.7 µM	–	–	–	–	–	–	–	–	–
COC(=O)C1CC(C=O)=C(SC)N1 (stereo unspecified)	> 50 µM	> 50 µM	> 50 µM	–	> 50 µM	> 50 µM	> 50 µM	> 50 µM	> 50 µM	–	–	–	–	–	–	–	–	–	–
O=C(n1c(=O)n(-c2ccc([N+](=O)[O-])cc2)c(=O)n1C(=O)C(Cl)(Cl)Cl)C(Cl)(Cl)Cl	> 100 µM	–	> 100 µM	> 100 µM	> 100 µM	> 100 µM	> 100 µM	> 100 µM	> 100 µM	> 100 µM	–	–	–	–	–	–	–	–	–
